Results on ten compounds are retold here after patent US20070049593A1 (priority 2004, published 2007).

Molecules are shown by their SMILES. Counter-ions that a name gives are not always drawn.

The target in this experiment is T1, HCV polymerase (Hepatitis C virus genotype 1b, UniProt P26663).
T1 construct: a region encoding NS5B (J Virol 1991 March, 65(3), 1105-13, 544 amino acids after deletion of 47 amino acids on the C-terminal); 6xHis (C); made in house; host or cells: Escherichia coli
T1 sequence (P26663 2420-2963): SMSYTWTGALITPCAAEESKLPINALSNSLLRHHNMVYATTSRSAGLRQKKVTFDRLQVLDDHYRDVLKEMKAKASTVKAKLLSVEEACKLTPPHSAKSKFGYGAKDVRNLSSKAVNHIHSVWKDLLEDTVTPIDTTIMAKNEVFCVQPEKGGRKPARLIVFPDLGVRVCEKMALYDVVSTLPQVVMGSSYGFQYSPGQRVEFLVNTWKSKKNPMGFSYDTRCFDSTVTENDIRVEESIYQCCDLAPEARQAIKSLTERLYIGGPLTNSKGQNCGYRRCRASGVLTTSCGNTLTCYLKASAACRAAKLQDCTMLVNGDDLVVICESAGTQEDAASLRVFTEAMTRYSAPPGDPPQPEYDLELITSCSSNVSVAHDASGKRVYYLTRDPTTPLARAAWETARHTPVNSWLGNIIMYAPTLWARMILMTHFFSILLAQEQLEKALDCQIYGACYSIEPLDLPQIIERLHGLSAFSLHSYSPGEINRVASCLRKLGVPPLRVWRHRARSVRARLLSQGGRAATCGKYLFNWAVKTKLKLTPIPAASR
Nature of the experiment: biochemical. On the set-up: species or system HCV BK strain. Put shortly:
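Recombinant HCV BK-strain NS5B (C-terminal 47 aa deleted, His6-tagged, E. coli), 0.5 μg/ml, run with 5 μg/ml in vitro-transcribed RNA template (polyU/3′X), ATP/GTP/CTP 50 μM, UTP 2 μM plus [3H]UTP, pH 7.5, 25° C, 90 min. TCA-precipitated RNA counted by scintillation; IC50 from activity with vs without compound.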
In general, IC50 refers to the concentration needed to halve the response being measured. Low readings indicate inhibition by little substance, high ones a need for much substance. Consider `COC[C@@H]1CCCN(CCN2CCn3c(c(C4CCCCC4)c4ccc(C(=O)O)cc43)-c3cc(F)c(F)cc32)C1` [Example 1-530, 13-cyclohexyl-2,3-difluoro-5-[2-7((R)-3-methoxymethylpiperidin-1-yl)ethyl]-6,7-dihydro-5H-benzo[5,6][1,4]diazepino[7,1-a]indole-10-carboxylic acid dihydrochloride], for which the IC50 was under 100 nM.
`CCN(CCCOC)CCN1CCn2c(c(C3CCCCC3)c3ccc(C(=O)O)cc32)-c2ccc(C)cc21` [Example 1-531, 13-cyclohexyl-5-{2-[N-ethyl-N-(3-methoxypropyl)amino]ethyl}-3-methyl-6,7-dihydro-5H-benzo[5,6][1,4]diazepino[7,1-a]indole-10-carboxylic acid dihydrochloride] yielded an IC50 of under 100 nM.
The compound `Cc1ccc2c(c1)N(CCN1CCOCC(C)C1)CCn1c-2c(C2CCCCC2)c2ccc(C(=O)O)cc21` (stereo not shown) [Example 1-532, 13-cyclohexyl-3-methyl-5-[2-(6-methyl-1,4-oxazepan-4-yl)ethyl]-6,7-dihydro-5H-benzo[5,6][1,4]diazepino[7,1-a]indole-10-carboxylic acid dihydrochloride] returned an IC50 of under 100 nM.
Consider `Cc1ccc2c(c1)N(CCN1CCC[C@@H](C(C)(C)O)C1)CCn1c-2c(C2CCCCC2)c2ccc(C(=O)O)cc21` [Example 1-533, 13-cyclohexyl-5-{2-[(R)-3-(1-hydroxy-1-methylethyl)piperidin-1-yl]ethyl}-3-methyl-6,7-dihydro-5H-benzo[5,6][1,4]diazepino[7,1-a]indole-10-carboxylic acid dihydrochloride], for which the IC50 is under 100 nM.
The compound `COCCN1CCCC(CCN2CCn3c(c(C4CCCCC4)c4ccc(C(=O)O)cc43)-c3ccc(Cl)cc32)C1` (stereo not shown) [Example 1-534, 3-chloro-13-cyclohexyl-5-{2-[1-(2-methoxyethyl)piperidin-3-yl]ethyl}-6,7-dihydro-5H-benzo[5,6][1,4]diazepino[7,1-a]indole-10-carboxylic acid dihydrochloride] displayed an IC50 of under 100 nM.
Under `Cc1noc(C)c1COc1ccc2c(c1)N(CCN(C)C)CCn1c-2c(C2CCCCC2)c2ccc(C(=O)O)cc21` [Example 1-535, 13-cyclohexyl-5-(2-dimethylaminoethyl)-3-(3,5-dimethylisoxazol-4-ylmethoxy)-6,7-dihydro-5H-benzo[5,6][1,4]diazepino[7,1-a]indole-10-carboxylic acid dihydrochloride] stands under 100 nM.
On to `Cc1ccc2c(c1)N(CCN1CCCC(=O)CC1)CCn1c-2c(C2CCCCC2)c2ccc(C(=O)O)cc21` [Example 1-536, 13-cyclohexyl-3-methyl-5-[2-(4-oxoazepan-1-yl)ethyl]-6,7-dihydro-5H-benzo[5,6][1,4]diazepino[7,1-a]indole-10-carboxylic acid dihydrochloride], for which the IC50 was under 100 nM.
Regarding `Cc1ccc2c(c1)N(CCN1CCC[C@@H](CCC(=O)N(C)C)C1)CCn1c-2c(C2CCCCC2)c2ccc(C(=O)O)cc21` [Example 1-537, 13-cyclohexyl-5-{2-[(S)-3-(2-dimethylcarbamoylethyl)piperidin-1-yl]ethyl}-3-methyl-6,7-dihydro-5H-benzo[5,6][1,4]diazepino[7,1-a]indole-10-carboxylic acid dihydrochloride], the IC50 is under 100 nM.
`Cc1ccc2c(c1)N(CCN1CCCC(O)CC1)CCn1c-2c(C2CCCCC2)c2ccc(C(=O)O)cc21` (stereo not shown) [Example 1-538, 13-cyclohexyl-5-[2-(4-hydroxyazepan-1-yl)ethyl]-3-methyl-6,7-dihydro-5H-benzo[5,6][1,4]diazepino[7,1-a]indole-10-carboxylic acid dihydrochloride] yielded an IC50 of under 100 nM.
`CCN(CCCCOC)CCN1CCn2c(c(C3CCCCC3)c3ccc(C(=O)O)cc32)-c2ccc(C)cc21` [Example 1-539, 13-cyclohexyl-5-{2-[N-ethyl-N-(4-methoxybutyl)amino]ethyl}-3-methyl-6,7-dihydro-5H-benzo[5,6][1,4]diazepino[7,1-a]indole-10-carboxylic acid dihydrochloride] yielded an IC50 of under 100 nM.
